Data reported in paper PMC6272861, “In Vitro Inhibition of Human UDP-Glucuronosyl-Transferase (UGT) Isoforms by Astaxanthin, β-Cryptoxanthin, Canthaxanthin, Lutein, and Zeaxanthin: Prediction of in Vivo Dietary Supplement-Drug Interactions” (Molecules, 2016).
Where two headings read alike, the source gives them in different places.

Columns and labels:
UGT1A4 = biological target: T1, UGT1A4 (Homo sapiens, UniProt P22310); assay: Inhibition of UGT1A4 (trifluoperazine-N-glucuronidation) in human liver microsomes; format: in vitro ADME; settings: for IC50: 4 μM trifluoperazine, mean ± SD of triplicate, read-out: IC50 towards UGT1A4; for Residual UGT1A4 enzyme activity: highest tested concentration 50 μM
T1 construct: pooled human liver microsomes (final concentration 0.25 mg/mL); tissue Corning Life Sciences; host or cells: pooled human liver microsomes, 150 donors
T1 sequence (P22310 29-534): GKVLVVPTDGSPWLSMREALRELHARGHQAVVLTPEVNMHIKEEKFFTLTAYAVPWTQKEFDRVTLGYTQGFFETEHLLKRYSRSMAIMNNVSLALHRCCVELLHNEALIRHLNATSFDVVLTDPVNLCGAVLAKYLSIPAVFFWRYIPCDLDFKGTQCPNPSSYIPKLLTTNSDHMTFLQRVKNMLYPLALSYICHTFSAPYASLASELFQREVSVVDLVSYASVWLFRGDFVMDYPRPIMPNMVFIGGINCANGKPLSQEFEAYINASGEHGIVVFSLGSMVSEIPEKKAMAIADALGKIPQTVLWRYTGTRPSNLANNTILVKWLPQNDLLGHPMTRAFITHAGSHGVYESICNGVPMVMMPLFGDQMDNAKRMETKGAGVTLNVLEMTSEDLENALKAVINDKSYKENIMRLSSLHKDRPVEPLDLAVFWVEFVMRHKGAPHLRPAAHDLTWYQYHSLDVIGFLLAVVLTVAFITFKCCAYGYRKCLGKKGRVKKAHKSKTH
Protocol: (§1) The formation activities of β-estradiol-3-glucuronide, chenodeoxycholic acid 24-acyl-β-D-glucuronide, trifluoperazine-N-glucuronide, imipramine-N-β-D-glucuronide, serotonin-O-glucuronide, propofol-O-glucuronide, and zidovudine-5′-glucuronide were determined to probe the activities of UGT1A1, UGT1A3, UGT1A4, UGT1A6, UGT1A9 and UGT2B7, respectively, in human liver microsomes.
(§2) In brief, the 90-µL incubation mixture, including pooled human liver microsomes (final concentration 0.25 mg/mL), 100 mM Tris buffer, 25 µg/mL alamethicin, 5 mM MgCl2, the UGT-selective substrates, and five xanthophylls (0–50 μM), were pre-incubated for 30 min on ice to allow formation of alamethicin pores. Reac2345tions were initiated by the addition of 10 μL of UDPGA (5 mM) to a final reaction volume of 0.1 mL and incubated at 37 °C for 60 min (except 30 min for UGT1A9) in a shaking water bath. After incubation, each reaction was stopped by adding 50 μL of ice-cold acetonitrile containing chlorpropamide (300 ng/mL) or theophylline (30 μg/mL or 300 μg/mL) as an internal standard. The mixtures were then centrifuged (13,000 g for 15 min at 4 °C) and 5-µL aliquots of the supernatants were injected into an LC-MS/MS system. […] All incubations were performed in triplicate, and mean values were used for analysis.
(§3) Chromatographic separations were performed on an Agilent Poroshell 120 EC-C18 column (50 mm × 4.6-mm i.d.; 2.7-μm particle size; Agilent Technologies) to quantify β-estradiol-3-glucuronide (UGT1A1), chenodeoxycholic acid 24-acyl-β-D-glucuronide (UGT1A3), trifluoperazine-N-glucuronide (UGT1A4), propofol-O-glucuronide (UGT1A9), zidovudine-5′-glucuronide (UGT2B7), and 4-methylumbelliferyl glucuronide (UGT2B15); an Agilent Poroshell 120 EC-C18 column (100 × 4.6-mm i.d.; 2.7-mm particle size) was used for quantification of serotonin-O-glucuronide (UGT1A6). The isocratic mobile phase consisted of distilled water (A) and acetonitrile containing 0.1% formic acid (B) at a ratio (v/v) of 10:90 for chenodeoxycholic acid 24-acyl-β-D-glucuronide, 30:70 for trifluoperazine-N-glucuronide and zidovudine-5′-glucuronide, 50:50 for propofol-O-glucuronide and 4-methylumbelliferyl glucuronide, 65:35 for β-estradiol-3-glucuronide, and 90:10 for serotonin-O-glucuronide, at a flow rate of 0.5 mL/min. The total run time was 4.0 min per sample for each metabolite, with the exception of serotonin-O-glucuronide (6.0 min). Peak areas for all of the analytes were automatically integrated using Analyst software (version 1.5.2, Applied Biosystems, Foster City, CA, USA).
(§4) The IC50 values were calculated via nonlinear least-squares regression analysis from plots of the logarithms of inhibitor concentration vs. the residual percentages of activities after inhibition, using WinNonlin (ver. 4.0; Pharsight, Mountain View, CA, USA).

UGT1A1 [1] = biological target: T2, UGT1A1 (Homo sapiens, UniProt P22309); assay: Inhibition of UGT1A1 (β-estradiol-3-glucuronidation) in human liver microsomes; settings: for Residual UGT1A1 enzyme activity: highest tested concentration 50 μM
T2 sequence (P22309 26-533): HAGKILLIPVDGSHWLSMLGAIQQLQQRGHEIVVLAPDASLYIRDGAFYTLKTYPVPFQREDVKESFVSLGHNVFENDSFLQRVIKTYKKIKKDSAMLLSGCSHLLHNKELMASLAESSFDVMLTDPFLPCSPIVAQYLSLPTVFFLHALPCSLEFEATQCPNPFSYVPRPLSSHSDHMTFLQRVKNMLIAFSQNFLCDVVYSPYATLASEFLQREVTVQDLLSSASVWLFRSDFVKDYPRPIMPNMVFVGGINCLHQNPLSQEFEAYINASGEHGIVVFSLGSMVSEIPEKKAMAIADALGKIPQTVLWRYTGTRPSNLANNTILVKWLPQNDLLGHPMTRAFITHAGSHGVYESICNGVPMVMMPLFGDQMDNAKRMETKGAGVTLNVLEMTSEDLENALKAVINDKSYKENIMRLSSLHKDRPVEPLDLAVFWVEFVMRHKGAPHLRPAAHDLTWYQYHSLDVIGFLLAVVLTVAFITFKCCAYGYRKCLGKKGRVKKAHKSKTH
Protocol: as §1, §2, §3, §4

UGT1A6 = biological target: T3, UGT1A6 (Homo sapiens, UniProt P19224); assay: Inhibition of UGT1A6 (serotonin-O-glucuronidation) in human liver microsomes; format: in vitro ADME; settings: for IC50: 4000 μM serotonin, mean ± SD of triplicate, read-out: IC50 towards UGT1A6; for Residual UGT1A6 enzyme activity: highest tested concentration 50 μM
T3 construct: pooled human liver microsomes (final concentration 0.25 mg/mL); tissue Corning Life Sciences; host or cells: pooled human liver microsomes, 150 donors
T3 sequence (P19224 27-532): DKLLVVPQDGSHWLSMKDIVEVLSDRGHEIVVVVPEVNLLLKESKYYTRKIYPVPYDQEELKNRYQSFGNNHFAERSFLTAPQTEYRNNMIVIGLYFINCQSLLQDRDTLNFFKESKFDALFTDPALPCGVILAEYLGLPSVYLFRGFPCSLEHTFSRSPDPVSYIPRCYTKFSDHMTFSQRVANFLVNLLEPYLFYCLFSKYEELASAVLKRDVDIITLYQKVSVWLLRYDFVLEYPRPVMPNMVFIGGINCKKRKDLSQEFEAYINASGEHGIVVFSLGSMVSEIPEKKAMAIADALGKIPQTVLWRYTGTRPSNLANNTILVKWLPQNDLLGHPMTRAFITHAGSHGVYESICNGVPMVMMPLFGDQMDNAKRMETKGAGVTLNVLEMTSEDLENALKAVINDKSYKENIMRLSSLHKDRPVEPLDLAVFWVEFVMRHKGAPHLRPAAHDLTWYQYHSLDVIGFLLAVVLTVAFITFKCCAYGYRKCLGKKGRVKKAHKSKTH
Protocol: as §1, §2
The IC50 values were calculated via nonlinear least-squares regression analysis from plots of the logarithms of inhibitor concentration vs. the residual percentages of activities after inhibition, using WinNonlin (ver. 4.0; Pharsight, Mountain View, CA, USA). The apparent inhibitory constants (the Ki values) were estimated from fitted curves using the WinNonlin software. Inhibition data were fitted to different models of enzyme inhibition (competitive, non-competitive, uncompetitive, or mixed) using nonlinear least-squares regression analysis (WinNonlin software). The most appropriate inhibition model was selected based on goodness-of-fit criteria determined via visual inspection, by calculating correlations of determination (R^2 values), and using the corrected Akaike′s Information Criterion. For visual inspection, data were presented as Dixon plots.

UGT1A1 [2] = biological target: T2, UGT1A1; assay: Ki determination on UGT1A1 activity (β-estradiol-3-glucuronidation) in human liver microsomes
Protocol: Based on the lowest IC50 value, the inhibitor constant (Ki) values of the βC for UGT1A1 were determined. […] All incubations were performed in triplicate, and the mean values were used for the analysis. Other procedures were similar to those of the reversible inhibition studies.
For visual inspection, data were presented as Dixon plots.

[3] = set-up: method as in PMID 13129448; settings: healthy subjects, single-dose carotenoid supplement containing 1.3 mg of esterified βC, oral; read-out: mean Cmax (maximum plasma concentration); cited from earlier work
UGT1A1 [4] = biological target: T2, UGT1A1; assay: Prediction of in vivo drug interaction via UGT1A1 inhibition (AUCi/AUC = 1 + [I]in vivo/Ki); set-up: pooled human liver microsomes (final concentration 0.25 mg/mL); tissue Corning Life Sciences; host or cells: pooled human liver microsomes, 150 donors
Excerpt: As far as we know, for reversible inhibitors, the magnitude of the drug-drug interaction is affected by both the in vitro inhibition constant (Ki) and the in vivo inhibitor concentration. […] In this study, the maximum plasma concentration (Cmax) of βC was used as the [I]in vivo value, and the fraction metabolized by the UGT1A1 of the co-administrated drug was supposed to be 1.

[5] = read-out: IC50 towards UGT1A1, human liver microsomes, 10 μM β-estradiol, mean ± SD of triplicate

Row | SMILES | IC50 (UGT1A4) [µM] | Residual UGT1A4 enzyme activity (UGT1A4) | IC50 (UGT1A1 [1]) [µM] | Residual UGT1A1 enzyme activity (UGT1A1 [1]; human liver microsomes) | IC50 (UGT1A6) [µM] | Residual UGT1A6 enzyme activity (UGT1A6) | IC50 (UGT1A1 [1]; [5]) [µM] | Mode of inhibition of UGT1A1 (UGT1A1 [2]; Dixon plots / nonlinear regression) | Ki (UGT1A1 [2]; read-out: Ki against UGT1A1-catalyzed β-estradiol-3-glucuronidation, β-estradiol 5, 10 and 20 μM, nonlinear regression) [µM] | Cmax [3] [nM] | AUCi/AUC ratio for UGT1A1 (UGT1A1 [4]; calculated from Cmax 0.15 μM and Ki, fraction metabolized by UGT1A1 supposed to be 1) | Predicted increase of AUC of co-administered drug (UGT1A1 [4]; drugs that undergo 100% UGT1A1-mediated elimination) [%]
1 | CC1=C(/C=C/C(C)=C/C=C/C(C)=C/C=C/C=C(C)/C=C/C=C(C)/C=C/C2=C(C)C(=O)[C@@H](O)CC2(C)C)C(C)(C)C[C@H](O)C1=O [AS, astaxanthin] | > 50 | greater than 80% | > 50 | greater than 80% | > 50 | greater than 80% |  |  |  |  |  | 
2 | CC1=C(/C=C/C(C)=C/C=C/C(C)=C/C=C/C=C(C)/C=C/C=C(C)/C=C/C2=C(C)C(=O)CCC2(C)C)C(C)(C)CCC1=O [CA, canthaxanthin] | > 50 |  |  |  | > 50 |  | 38.5 ± 4.65 |  |  |  |  | 
3 | CC1=C(/C=C/C(C)=C/C=C/C(C)=C/C=C/C=C(C)/C=C/C=C(C)/C=C/C2=C(C)C[C@@H](O)CC2(C)C)C(C)(C)CCC1 [βC, β-cryptoxanthin] | 34.9 ± 5.98 |  |  |  | > 50 |  | 18.8 ± 2.07 | competitive inhibition | 12.2 ± 0.985 | ~150 | 1.012 | 1.2

Second part, led by results:

Row | IC50 (UGT1A4) [µM] | Residual UGT1A4 enzyme activity (UGT1A4) | IC50 (UGT1A1 [1]) [µM] | Residual UGT1A1 enzyme activity (UGT1A1 [1]; human liver microsomes) | IC50 (UGT1A6) [µM] | Residual UGT1A6 enzyme activity (UGT1A6) | SMILES | IC50 (UGT1A1 [1]; [5]) [µM] | Mode of inhibition of UGT1A1 (UGT1A1 [2]; Dixon plots / nonlinear regression) | Ki (UGT1A1 [2]; read-out: Ki against UGT1A1-catalyzed β-estradiol-3-glucuronidation, β-estradiol 5, 10 and 20 μM, nonlinear regression) [µM] | Cmax [3] [nM] | AUCi/AUC ratio for UGT1A1 (UGT1A1 [4]; calculated from Cmax 0.15 μM and Ki, fraction metabolized by UGT1A1 supposed to be 1) | Predicted increase of AUC of co-administered drug (UGT1A1 [4]; drugs that undergo 100% UGT1A1-mediated elimination) [%]
4 | > 50 | greater than 80% | > 50 | 61.2% | > 50 | greater than 80% | CC1=C(/C=C/C(C)=C/C=C/C(C)=C/C=C/C=C(C)/C=C/C=C(C)/C=C/C2=C(C)C[C@@H](O)CC2(C)C)C(C)(C)C[C@H](O)C1 [ZE, zeaxanthin] |  |  |  |  |  | 
5 | 28.7 ± 3.79 |  | 45.5 ± 4.01 |  | > 50 |  | CC1=C[C@H](O)CC(C)(C)[C@H]1/C=C/C(C)=C/C=C/C(C)=C/C=C/C=C(C)/C=C/C=C(C)/C=C/C1=C(C)C[C@@H](O)CC1(C)C [LU, lutein] |  |  |  |  |  | 
